Reference: the supplement of paper PMC11061612

What was measured:
[1] = tested on: EJM (Plasma Cell Myeloma); assay: Bliss excess, mean over the matrix (fraction); higher = more synergy
How it was run: (§1)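 Cell lines in DMEM/F12 or RPMI with 10% FBS were plated in 1536-well plates, held 24 hours at 37°C, 5% CO2, then given two-drug dose matrices for 72 hours (DMSO typically 0.2%). Viability was read by CellTiter-Glo 2.0 luminescence and scaled as inhibition from 0 (vehicle wells) to 1 (blank wells). Combination Emax is the second-highest inhibition in the matrix; Bliss excess is observed combination effect minus expected EA + EB − EA·EB, EA and EB being single-agent effects.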

[2] = tested on: NCI-H2122 (Lung Adenocarcinoma); assay: as above
How it was run: as §1

[3] = tested on: A4-Fuk (B-Lymphoblastic Leukemia); assay: combination Emax (second highest fraction inhibited in the dose matrix, 72 h); higher = more inhibition; extreme values may be limits of the assay
How it was run: as §1

COLO-679 (Melanoma) = assay: as above
How it was run: as §1

EW-1 (Ewing's Sarcoma) = assay: as above
How it was run: as §1

[4] = tested on: HAL-01 (B-Lymphoblastic Leukemia); assay: as above
How it was run: as §1

[5] = tested on: HCC1937 (Breast Carcinoma); assay: as above
How it was run: as §1

[6] = tested on: KGN (Other Solid Carcinomas); assay: as above
How it was run: as §1

[7] = tested on: KOPN-8 (B-Lymphoblastic Leukemia); assay: as above
How it was run: as §1

[8] = tested on: MDA-MB-453 (Breast Carcinoma); assay: as above
How it was run: as §1

[9] = tested on: ME-180 (Cervical Carcinoma); assay: as above
How it was run: as §1

[10] = tested on: MOLT-4 (T-Lymphoblastic Leukemia); assay: as above
How it was run: as §1

[11] = tested on: MV-4-11 (Acute Myeloid Leukemia); assay: as above
How it was run: as §1

[12] = tested on: NCI-H1092 (Small Cell Lung Carcinoma); assay: as above
How it was run: as §1

[13] = tested on: NCI-H1838 (Lung Adenocarcinoma); assay: as above
How it was run: as §1

[14] = tested on: NCI-H2122 (Lung Adenocarcinoma); assay: as above
How it was run: as §1

[15] = tested on: OACM5-1 (Esophageal Adenocarcinoma); assay: as above
How it was run: as §1

[16] = tested on: SK-LU-1 (Lung Adenocarcinoma); assay: as above
How it was run: as §1

[17] = tested on: SNU-387 (Hepatocellular Carcinoma); assay: as above
How it was run: as §1

[18] = tested on: SW872 (Other Solid Carcinomas); assay: as above
How it was run: as §1
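Throughout, for Bliss excess, mean over the matrix: after 72 h of two-drug dosing.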

Row | SMILES | Bliss excess [1] | Bliss excess [2] | combination Emax [3] | combination Emax (COLO-679 (Melanoma)) | combination Emax (EW-1 (Ewing's Sarcoma)) | combination Emax [4] | combination Emax [5] | combination Emax [6] | combination Emax [7] | combination Emax [8] | combination Emax [9] | combination Emax [10] | combination Emax [11] | combination Emax [12] | combination Emax [13] | combination Emax [14] | combination Emax [15] | combination Emax [16] | combination Emax [17] | combination Emax [18]
1 | CN(C)CCCOc1ccc(-c2ccc3ncc4c(c3c2)n(C2CCOCC2)c(=O)n4C)cn1 [AZD0156] + C=CCn1c(=O)c2cnc(Nc3ccc(N4CCN(C)CC4)cc3)nc2n1-c1cccc(C(C)(C)O)n1 [AZD1775] (first compound max 1 µM, partner max 1 µM) | -0.0266 | 0.0551 | 0.816 | 0.552 | 0.886 | 0.917 | 0.475 | 0.806 | 0.85 | 0.192 | 0.423 | 1 | 0.924 | 0.301 | 0.465 | 0.793 | 0.414 | 0.384 | 0.464 | 0.267
2 | CN(C)CCCOc1ccc(-c2ccc3ncc4c(c3c2)n(C2CCOCC2)c(=O)n4C)cn1 [AZD0156] + CCN(CCO)CCCOc1ccc2c(Nc3cc(CC(=O)Nc4cccc(F)c4)[nH]n3)ncnc2c1 [AZD2811] (first compound max 1 µM, 7x7, partner max 1 µM) | 0.0008 | 0.0471 | 0.551 | 0.159 | 0.301 | 0.435 | 0.159 | 0.551 | 0.554 | 0.144 | 0.192 | 0.968 | 0.93 | 0.181 | 0.263 | 0.358 | 0.232 | 0.143 | 0.207 | 0.0742
3 | CN(C)CCCOc1ccc(-c2ccc3ncc4c(c3c2)n(C2CCOCC2)c(=O)n4C)cn1 [AZD0156] + C[C@@H]1COCCN1C2=NC(=NC(=C2)C3(CC3)[S@](=N)(=O)C)C4=C5C=CNC5=NC=C4 [AZD6738] (first compound max 1 µM, 7x7, partner max 10 µM) | 0.0266 | 0.0154 | 0.734 | 0.749 | 0.93 | 0.988 | 0.543 | 0.848 | 0.927 | 0.831 | 0.343 | 0.97 | 0.992 | 0.174 | 0.745 | 0.945 | 0.57 | 0.474 | 0.553 | 0.552
4 | CN(C)CCCOc1ccc(-c2ccc3ncc4c(c3c2)n(C2CCOCC2)c(=O)n4C)cn1 [AZD0156] + O=C(c1cc(Cc2n[nH]c(=O)c3ccccc23)ccc1F)N1CCN(C(=O)C2CC2)CC1 [Olaparib] (first compound max 3 µM, partner max 3 µM) | 0.0719 | 0.109 | 0.553 | 0.225 | 0.684 | 0.563 | 0.228 | 0.62 | 0.78 | 0.286 | 0.348 | 0.636 | – | 0.304 | 0.21 | 0.355 | 0.327 | 0.334 | 0.405 | 0.272
5 | C=CCn1c(=O)c2cnc(Nc3ccc(N4CCN(C)CC4)cc3)nc2n1-c1cccc(C(C)(C)O)n1 [AZD1775] + C1CN(CCC1(C(=O)N[C@@H](CCO)C2=CC=C(C=C2)Cl)N)C3=NC=NC4=C3C=CN4 [Capivasertib] (first compound max 3 µM, partner max 3 µM) | -0.0041 | 0.0752 | 0.859 | 0.412 | 0.963 | 0.977 | 0.873 | 0.734 | 0.968 | 0.859 | 0.898 | 0.989 | – | 0.533 | 0.501 | 0.931 | 0.74 | 0.634 | 0.687 | –
6 | C=CCn1c(=O)c2cnc(Nc3ccc(N4CCN(C)CC4)cc3)nc2n1-c1cccc(C(C)(C)O)n1 [AZD1775] + C[C@@H]1COCCN1C2=NC(=NC(=C2)C3(CC3)[S@](=N)(=O)C)C4=C5C=CNC5=NC=C4 [AZD6738] (first compound max 1 µM, partner max 10 µM) | -0.0079 | -0.0303 | 0.875 | 0.723 | 0.935 | 1 | 0.68 | 0.922 | 0.965 | 0.891 | 0.802 | 1 | 0.991 | 0.397 | 0.733 | 0.961 | 0.778 | 0.488 | 0.7 | 0.83
7 | C=CCn1c(=O)c2cnc(Nc3ccc(N4CCN(C)CC4)cc3)nc2n1-c1cccc(C(C)(C)O)n1 [AZD1775] + O=C(c1cc(Cc2n[nH]c(=O)c3ccccc23)ccc1F)N1CCN(C(=O)C2CC2)CC1 [Olaparib] (first compound max 1 µM, partner max 10 µM) | -0.0429 | -0.0522 | 0.875 | 0.491 | 0.907 | 0.935 | 0.497 | 0.745 | 0.904 | 0.411 | 0.457 | 1 | 0.978 | 0.382 | 0.477 | 0.834 | 0.353 | 0.436 | 0.567 | 0.336
8 | CCN(CCO)CCCOc1ccc2c(Nc3cc(CC(=O)Nc4cccc(F)c4)[nH]n3)ncnc2c1 [AZD2811] + C=CCn1c(=O)c2cnc(Nc3ccc(N4CCN(C)CC4)cc3)nc2n1-c1cccc(C(C)(C)O)n1 [AZD1775] (first compound max 1 µM, partner max 1 µM) | -0.0443 | 0.0618 | 0.852 | 0.491 | 0.827 | 0.891 | 0.471 | 0.767 | 0.882 | 0.301 | 0.396 | 1 | 0.936 | 0.259 | 0.483 | 0.897 | 0.339 | 0.416 | 0.575 | 0.289
9 | CCN(CCO)CCCOc1ccc2c(Nc3cc(CC(=O)Nc4cccc(F)c4)[nH]n3)ncnc2c1 [AZD2811] + C[C@@H]1COCCN1C2=NC(=NC(=C2)C3(CC3)[S@](=N)(=O)C)C4=C5C=CNC5=NC=C4 [AZD6738] (first compound max 1 µM, 7x7, partner max 10 µM) | -0.0286 | -0.0436 | 0.747 | 0.679 | 0.852 | 0.99 | 0.47 | 0.822 | 0.855 | 0.807 | 0.43 | 1 | 0.998 | 0.236 | 0.643 | 0.902 | 0.44 | 0.473 | 0.494 | 0.571
10 | CCN(CCO)CCCOc1ccc2c(Nc3cc(CC(=O)Nc4cccc(F)c4)[nH]n3)ncnc2c1 [AZD2811] + O=C(c1cc(Cc2n[nH]c(=O)c3ccccc23)ccc1F)N1CCN(C(=O)C2CC2)CC1 [Olaparib] (first compound max 1 µM, 7x7, partner max 10 µM) | 0.0335 | 0.0155 | 0.437 | 0.281 | 0.709 | 0.37 | 0.238 | 0.629 | 0.709 | 0.112 | 0.252 | 0.974 | 0.961 | 0.212 | 0.275 | 0.437 | 0.247 | 0.229 | 0.17 | 0.172
11 | Cc1c2c(nn1C)CSCc1cc(n(C)n1)CSc1cc(c3ccccc3c1)OCCCc1c(C(=O)O)n(C)c3c-2c(Cl)ccc13 [AZD5991] + C=CCn1c(=O)c2cnc(Nc3ccc(N4CCN(C)CC4)cc3)nc2n1-c1cccc(C(C)(C)O)n1 [AZD1775] (first compound max 1 µM, partner max 1 µM) | 0.0357 | – | 1 | 0.529 | 0.974 | 0.907 | 0.617 | 0.725 | 0.998 | 0.4 | 0.52 | 1 | 1 | 0.696 | 0.835 | 0.979 | 0.928 | 0.575 | 0.581 | 0.374
12 | CS(=O)(=O)CCNCc1ccc(-c2ccc3ncnc(Nc4ccc(OCc5cccc(F)c5)c(Cl)c4)c3c2)o1 [Lapatinib] + NC1(c2ccc(-c3nc4ccn5c(=O)[nH]nc5c4cc3-c3ccccc3)cc2)CCC1 [MK-2206] (first compound max 10 µM, 7x7, partner max 10 µM) | – | – | 0.971 | 0.618 | – | 0.951 | 0.841 | 0.85 | 0.936 | 0.801 | 0.758 | 0.938 | 0.961 | 0.791 | 0.348 | – | – | 0.335 | 0.873 | 0.247
13 | CC1(C)CCC(CN2CCN(c3ccc(C(=O)NS(=O)(=O)c4ccc(NCC5CCOCC5)c([N+](=O)[O-])c4)c(Oc4cnc5[nH]ccc5c4)c3)CC2)=C(c2ccc(Cl)cc2)C1 [Venetoclax] + CS(=O)(=O)CCNCc1ccc(-c2ccc3ncnc(Nc4ccc(OCc5cccc(F)c5)c(Cl)c4)c3c2)o1 [Lapatinib] (first compound max 1 µM, 7x7, partner max 10 µM) | – | – | 0.832 | 0.0296 | – | 0.968 | – | 0.4 | – | 0.419 | 0.427 | 0.502 | 1 | – | – | – | – | 0.183 | 0.078 | 0.0911
